Test results: PubChem BioAssay (NCI)
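Grown in 96-well plates, cells were treated for 48 hours with each compound at five concentrations. Insufficient inhibition: endpoint recorded as highest concentration tested. TGI marks complete inhibition of growth.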

Columns and labels:
Assay in all cases: NCI tumour cell line growth inhibition, 48 h
NCI-H522 lung = tested on: NCI-H522 lung
NCI-H23 lung = tested on: NCI-H23 lung
CCRF-CEM leukemia = tested on: CCRF-CEM leukemia
RPMI-8226 leukemia = tested on: RPMI-8226 leukemia
HL-60(TB) leukemia = tested on: HL-60(TB) leukemia
MDA-MB-435 = tested on: MDA-MB-435
DU-145 prostate = tested on: DU-145 prostate
A498 renal = tested on: A498 renal
SK-MEL-5 melanoma = tested on: SK-MEL-5 melanoma
IGROV1 ovarian = tested on: IGROV1 ovarian
HOP-62 NSCLC = tested on: HOP-62 NSCLC
RXF 393 renal = tested on: RXF 393 renal
PC-3 prostate = tested on: PC-3 prostate
SF-295 CNS = tested on: SF-295 CNS
SK-MEL-2 melanoma = tested on: SK-MEL-2 melanoma
MDA-N = tested on: MDA-N
UO-31 renal = tested on: UO-31 renal
OVCAR-4 ovarian = tested on: OVCAR-4 ovarian
MALME-3M melanoma = tested on: MALME-3M melanoma
NCI/ADR-RES ovarian = tested on: NCI/ADR-RES ovarian
786-0 renal = tested on: 786-0 renal
OVCAR-5 ovarian = tested on: OVCAR-5 ovarian
COLO 205 colon = tested on: COLO 205 colon
UACC-257 melanoma = tested on: UACC-257 melanoma
LOX IMVI melanoma = tested on: LOX IMVI melanoma
K-562 leukemia = tested on: K-562 leukemia
SNB-75 CNS = tested on: SNB-75 CNS
SK-MEL-28 melanoma = tested on: SK-MEL-28 melanoma
OVCAR-3 ovarian = tested on: OVCAR-3 ovarian
MOLT-4 leukemia = tested on: MOLT-4 leukemia
OVCAR-8 ovarian = tested on: OVCAR-8 ovarian
CAKI-1 renal = tested on: CAKI-1 renal
T-47D breast = tested on: T-47D breast
HCT-15 colon = tested on: HCT-15 colon
SN12C renal = tested on: SN12C renal
HCT-116 colon = tested on: HCT-116 colon
NCI-H460 lung = tested on: NCI-H460 lung
ACHN renal = tested on: ACHN renal
U251 CNS = tested on: U251 CNS
A549 NSCLC = tested on: A549 NSCLC
HCC-2998 colon = tested on: HCC-2998 colon
UACC-62 melanoma = tested on: UACC-62 melanoma
SNB-19 CNS = tested on: SNB-19 CNS
SR leukemia = tested on: SR leukemia
TK-10 renal = tested on: TK-10 renal
KM12 colon = tested on: KM12 colon
SK-OV-3 ovarian = tested on: SK-OV-3 ovarian
HT29 colon = tested on: HT29 colon
SF-268 CNS = tested on: SF-268 CNS
MDA-MB-231 breast = tested on: MDA-MB-231 breast
SF-539 CNS = tested on: SF-539 CNS
MCF7 breast = tested on: MCF7 breast
SW-620 colon = tested on: SW-620 colon
M14 melanoma = tested on: M14 melanoma
HS 578T breast = tested on: HS 578T breast
EKVX NSCLC = tested on: EKVX NSCLC
NCI-H226 lung = tested on: NCI-H226 lung
HOP-92 NSCLC = tested on: HOP-92 NSCLC
BT-549 breast = tested on: BT-549 breast

Measured: TGI

CC(=O)NCC1(c2ccccc2)CCN(CC2COc3ccccc3O2)CC1 (centres undefined)
not listed: HOP-92 NSCLC | BT-549 breast
> 100 µM: all other assays above

C#CCCOC1(OC)N=NC(C)(C)O1 (centres undefined)
not listed: CAKI-1 renal | TK-10 renal | SK-OV-3 ovarian | MCF7 breast | BT-549 breast
> 100 µM: all other assays above

CCOC(=O)N1c2ccccc2S(=O)(=O)c2ccccc21
not listed: RPMI-8226 leukemia | MALME-3M melanoma | SNB-75 CNS | SR leukemia | HOP-92 NSCLC
> 100 µM: all other assays above

CC1=CC2(O)OC3(CC2=C(C)C)C(C)CCC13 (centres undefined)
not listed: PC-3 prostate | SK-MEL-28 melanoma | NCI-H460 lung | HCC-2998 colon | SR leukemia
> 100 µM: all other assays above
